How the values were obtained:
[1] = system: Rauscher Virus-Induced Leukemia; assay: Inhibition of splenomegaly in mice with Rauscher virus-induced leukemia; assay type: in vivo, Balb/c mice
[2] = system: Lewis lung carcinoma; assay: Surgical-adjuvant antitumor activity against Lewis lung carcinoma implanted subcutaneously in footpads; assay type: in vivo, BDF1 mice; conditions: 100 mg/kg intraperitoneal
Protocol: BDF1 mice were inoculated subcutaneously in the right hind footpad with 5×10^5 viable Lewis Lung carcinoma cells, on day zero. […] A control group of mice received a saline placebo instead of drug, and another group of tumor bearing mice received the positive control drug cyclophosphamide, at 100 mg/kg, administered by intraperitoneal injection. On the 11th day after tumor implantation, the mice were anesthesized with Nembutal, and the tumor bearing feet surgically amputated above the ankle joint. The surgical incision was swabbed with alcohol and sealed with stainless steel wound clips. The tumor bearing feet were individually weighed and the average weight of a normal foot (determined by weighing amputated feet from non-tumor bearing mice of the same age, sex and body weight) was subtracted to obtain the weight of tumor tissue in the amputated foot. Mice were then observed for deaths until the 90th day after tumor implantation. […]
^1 BDF1 male mice inoculated subcutaneously in footpad with 5
× 10^5 Lewis lung tumor cells on day zero;
(§1) 3,6bis(2-diethylaminoethoxy)acridine trihydrochloride administered orally
(§2) and Cyclophosphamide intraperitoneally, on days 1, 7, and 13 following
(§3) ^2 Average tumor weight determined after surgical amputation of tumor
bearing foot on day 11 following tumor implantation.

[3] = system: B16 melanoma; assay: Surgical-adjuvant antitumor activity against B16 melanoma implanted subcutaneously in footpads; assay type: in vivo, BDF1 mice; conditions: 100 mg/kg intraperitoneal
Protocol: BDF1 mice were inoculated subcutaneously in the right hind footpad with 5×10^5 viable B16 melanoma cells, on day zero. The drug was prepared in normal saline and administered by the oral route once daily, on days 1, 7, and 13 following tumor implantation, at doses range from 50 mg/kg to 400 mg/kg. A control group of mice received a saline placebo instead of drug, and another group of tumor bearing mice received the positive control drug cyclophosphamide, at 100 mg/kg, by intraperitoneal injection. On the 21st day after tumor implantation, the mice were anesthesized with Nembutal, and the tumor bearing feet were surgically amputated above the ankle joint. The surgical incision was swabbed with alcohol and sealed with stainless steel wound clips. The tumor bearing feet were individually weighed and the average weight of a normal foot (determined by weighing amputated feet from non-tumor bearing mice of the same sex, age, and body weight) was subtracted to obtain the weight of tumor tissue in the amputated feet. Mice were then observed for deaths until the 90th day after tumor implantation. […]
^1 BDF1 male mice inocluated with 5 × 10^5 B16 melanom
cells subcutaneously in footpad on day zero;
as §1, §2, §3
bearing foot on day 21 following tumor implantation.

[4] = system: normal mouse bone marrow; assay: Effect on normal mouse bone marrow; assay type: in vivo, C57 BL6 male mice; conditions: 24 hours after treatment; test compound oral, Cytoxan intraperitoneal
Protocol: The effect of drugs on normal mouse bone marrow is evaluated by determining total cell counts of femurs and by the ability of surviving cells to form colonies in semi-solid medium. The test compound is administered orally and the reference drug Cytoxan is administered intraperitoneally to C57 BL6 male mice. One femur from each of three mice per dose level is assayed 24 hours after treatment. Counts of nucleated cells are performed on pooled marrow suspensions and the clonogenic assay is performed by plating 50,000 cells in one ml. of culture medium in each of four culture dishes. The medium to support bone marrow progenitor cell growth is McCoy's medium supplemented with 0.9% methocel, 1.8% human serum albumin, 10% bovine fetal serum and 10% "conditioned" L-cell medium. Cultures are incubated at 37° C. in a humidified atmosphere and colonies are counted at seven days.

[5] = system: B-16 melanoma; assay: Potentiation of cyclophosphamide (Cytoxan) activity against B16 melanoma in mice; assay type: in vivo, BDF1 mice
Protocol: BDF1 male mice were inoculated subcutaneously with 0.25 ml. of a 10% B-16 melanoma homogenate. Cyclophosphamide was administered intraperitoneally at 80 mg./kg. the second day following the day of tumor implantation. Test compounds were given intraperitoneally on days +6, +8 and +10 relative to tumor implantation. […]
BDF1 male mice inoculated subcutaneously with 0.25 ml. of a 10% tumo
homogenate on day 0. Drugs were administered intraperitoneally;
cyclophosphoamide on day 2, 3,6bis(2-diethylaminoethoxy)acridine
trihydrochloride on days 6, 8 and 10.
^1 Number of survivors over number of mice treated.

[6] = system: malignant melanoma, acute leukemia, lung cancer, breast cancer; conditions: early clinical trials; cited from earlier work
[7] = system: tumor; conditions: experimental studies in animals; cited from earlier work
[8] = cyclophosphamide 80 mg/kg i.p. alone
[9] = cyclophosphamide 80 mg/kg i.p. alone, day 26

O=P1(N(CCCl)CCCl)NCCCO1 (stereo not shown) [Cyclophosphamide, reference compound]
% Reduction in splenomegaly ([1]; 100 mg/kg): 106%
reduction in splenomegaly ([1]; general statement, no dose, relative to placebo treated RLV-infected mice): ≥ 50%
Median survival time [2]: > 90.0 days
Average tumor weight ([2]; Day +11): 93 mg
Average % of tumor weight inhibition ([2]; Day +11, * significant (≥58%)): 75%
No. Survivors/No. Treated ([2]; at +90 days, ** p < .05): 10/12
% Increased life-span ([2]; + significant (≥25%)): > 200%
Median survival time [3]: > 90.0 days
Average tumor weight ([3]; Day +21): 202 mg
Average % of tumor weight inhibition ([3]; Day +21, * significant (≥58%)): 67%
No. Survivors/No. Treated ([3]; at +90 days, ** significant): 7/12
% Increased life-span ([3]; + significant (≥25%)): > 70%
Effect on total nucleated cell count of femur marrow, in words [4]: depressed the cell count significantly
ILS (Percent increase in life span over control) [5, 8]: 11%
MST (Median Survival Time) [5, 8]: 25.0 days
Number of survivors over number of mice treated ([5]; cyclophosphamide 80 mg/kg i.p. alone, day 21): 8/8
Average tumor weight ([5]; cyclophosphamide 80 mg/kg i.p. alone, day 21, p <0.05 vs untreated): 1237 mg
Average tumor weight [5, 9]: 7458 mg
Number of survivors over number of mice treated [5, 9]: 3/8
50% inhibition in local tumor growth, in words ([5]; monotherapy, i.p., day +26): failed to do so

c1ccc([C@H]2CN3CCSC3=N2)cc1 [levamisole]
Clinical antitumor success, in words [6]: Some successes have been claimed
Stimulation of cellular immunity and tumor regression, in words [7]: shown to stimulate cellular immunity and to produce tumor regression

Source: patent US4314061A, “Certain 3,6-bis-(heteroaminoalkoxy) acridines” (priority 1980, dated 1982)
